Measured values from patent US20260042753A1 (Merck Patent GmbH, priority 2019, published 2026).
Where two headings read alike, the source gives them in different places.

Assays:
c-Kit(V654A) = c-Kit(V654A) (Homo sapiens, UniProt P10721, V654A); assay: c-Kit(V654A) assay; type: biochemical
How it was run: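 Radiometric filter-binding read-out: after 3% phosphoric acid stop, peptide-incorporated 33P on filtermat scintillation-counted. Enzyme: human c-Kit V654A, residues 544–end, N-terminal GST fusion.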

[1] = target: mutant cKIT (560-576 and V654A) in GIST430/654 cell line (Homo sapiens (Human), UniProt P10721, DEL560-576/V654A); assay: Cellular testing of cKIT mutant inhibitors: phospho-Y307-cKIT Luminex assay in GIST430/654 cells; type: cell-based; conditions: read-out: GIST 430/654 IC50
Sequence of mutant cKIT (560-576 and V654A) in GIST430/654 cell line (P10721 other isoform, or with tags, fused parts or gaps V654A/del 1-25/del 560-576 limits assumed): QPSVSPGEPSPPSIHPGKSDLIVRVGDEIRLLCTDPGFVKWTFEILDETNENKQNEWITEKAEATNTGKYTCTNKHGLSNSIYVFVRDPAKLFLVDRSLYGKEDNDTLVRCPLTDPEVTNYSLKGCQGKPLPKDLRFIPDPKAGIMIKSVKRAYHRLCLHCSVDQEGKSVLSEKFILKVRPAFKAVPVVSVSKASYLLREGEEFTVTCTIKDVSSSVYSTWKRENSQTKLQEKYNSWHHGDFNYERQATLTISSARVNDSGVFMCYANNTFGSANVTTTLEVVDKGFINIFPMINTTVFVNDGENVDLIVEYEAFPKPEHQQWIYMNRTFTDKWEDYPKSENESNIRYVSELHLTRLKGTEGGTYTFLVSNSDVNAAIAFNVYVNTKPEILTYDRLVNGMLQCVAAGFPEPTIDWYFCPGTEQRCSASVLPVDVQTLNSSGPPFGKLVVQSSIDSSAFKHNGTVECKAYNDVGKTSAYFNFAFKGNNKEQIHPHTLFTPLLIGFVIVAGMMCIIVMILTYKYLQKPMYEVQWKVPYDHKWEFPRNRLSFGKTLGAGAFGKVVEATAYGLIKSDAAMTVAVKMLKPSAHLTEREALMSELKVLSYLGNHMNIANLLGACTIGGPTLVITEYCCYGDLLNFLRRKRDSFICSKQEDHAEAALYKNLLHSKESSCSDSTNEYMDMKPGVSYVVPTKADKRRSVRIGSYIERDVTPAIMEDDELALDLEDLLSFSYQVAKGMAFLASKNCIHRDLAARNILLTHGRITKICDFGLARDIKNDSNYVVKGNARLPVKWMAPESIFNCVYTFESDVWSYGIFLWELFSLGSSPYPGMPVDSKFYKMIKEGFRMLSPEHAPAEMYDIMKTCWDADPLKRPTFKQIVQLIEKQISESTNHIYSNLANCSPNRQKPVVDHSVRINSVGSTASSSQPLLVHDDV
How it was run: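 GIST430/654 cells carrying constitutively active cKIT (Δ560-576/V654A) were grown with 100 nM imatinib, then treated with serially diluted compound for 45 min. Lysates were captured on anti-total-cKIT Luminex beads overnight at 4 °C and probed for phospho-Y307-cKIT. IC50 was fitted from percent of 0.3% DMSO control.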

[2] = Table 1, cKIT autophosphorylation, compounds 45 min
[3] = Table 2, corresponding triazole derivatives

Row | SMILES | IC50 (c-Kit(V654A); Table 1, 200 μM ATP) [nM] | IC50 [1, 2] [nM] | IC50 (c-Kit(V654A); [3]) [nM] | IC50 [1, 3] [nM]
1 | COCCNC(=O)c1ccc2c(-c3cc(-c4ccc(C(=O)N(C)C)cc4)no3)n[nH]c2c1 [A25, 3-{3-[4-(dimethylcarbamoyl)phenyl]-1,2-oxazol-5-yl}-N-(2-methoxyethyl)-1H-indazole-6-carboxamide] | 30 | 5700 |  | 
2 | COCCOc1cc2[nH]nc(-c3cc(-c4ccc(C5CCNCC5(C)C)cc4)no3)c2cc1F (stereo not drawn) [A230, 3-{3-[4-(3,3-dimethyl-piperidin-4-yl)-phenyl]-isoxazol-5-yl}-5-fluoro-6-(2-methoxy-ethoxy)-1H-indazole] | 0.4 | 110 |  | 
3 | COCCOc1cc2[nH]nc(-c3cc(-c4ccc(C(=O)N5CCS(=O)(=O)CC5)cc4)no3)c2cc1F [A30, 4-(4-{5-[5-fluoro-6-(2-methoxyethoxy)-1H-indazol-3-yl]-1,2-oxazol-3-yl}benzoyl)-1lambda6-thiomorpholine-1,1-dione] | 0.73 | 56 |  | 
4 | COCCOc1cc2[nH]nc(-c3cc(-c4ccc(C(=O)N5CC(C)(N(C)C)C5)cc4)no3)c2cc1F [A181, 1-(4-{5-[5-fluoro-6-(2-methoxyethoxy)-1H-indazol-3-yl]-1,2-oxazol-3-yl}benzoyl)-N,N,3-trimethylazetidin-3-amine] | 1 | 40 |  | 
5 | COCCOc1cc2[nH]nc(-c3cc(-c4ccc(C(=O)N5CC(c6cncnc6)C5)cc4)no3)c2cc1F [A212, 5-fluoro-6-(2-methoxyethoxy)-3-(3-{4-[3-(pyrimidin-5-yl)azetidine-1-carbonyl]phenyl}-1,2-oxazol-5-yl)-1H-indazole] | 0.59 | 41 |  | 
6 | COCCOc1cc2[nH]nc(-c3cc(-c4ccc(C(=O)N5CCN(C)CC5CO)cc4)no3)c2cc1F (stereo not drawn) [A54, [1-(4-{5-[5-fluoro-6-(2-methoxyethoxy)-1H-indazol-3-yl]-1,2-oxazol-3-yl}benzoyl)-4-methylpiperazin-2-yl]methanol] | 0.73 | 130 |  | 
7 | COCCOc1cc2[nH]nc(-c3cc(-c4ccc(C(=O)N5CC(N6CC(F)C6)C5)cc4)no3)c2cc1F [A101, 5-fluoro-3-[3-(4-{3-fluoro-[1,3′-biazetidine]-1′-carbonyl}phenyl)-1,2-oxazol-5-yl]-6-(2-methoxyethoxy)-1H-indazole] | 0.94 | 160 |  | 
8 | COCCOc1cc2[nH]nc(-c3cc(-c4ccc(C(=O)NCCN(C)C)cc4)no3)c2cc1F [A72, N-[2-(dimethylamino)ethyl]-4-{5-[5-fluoro-6-(2-methoxyethoxy)-1H-indazol-3-yl]-1,2-oxazol-3-yl}benzamide] | 2.6 | 320 |  | 
9 | COCCOc1cc2[nH]nc(-c3cc(-c4ccc(C(=O)N5CCN(C6CCOC6)CC5)cc4)no3)c2cc1F (stereo not drawn) [A175, 5-fluoro-6-(2-methoxyethoxy)-3-(3-{4-[4-(oxolan-3-yl)piperazine-1-carbonyl]phenyl}-1,2-oxazol-5-yl)-1H-indazole] | 0.86 | 43 |  | 
10 | COCCOc1cc2[nH]nc(-c3cc(-c4ccc(C(=O)N5CC[C@@H]6COC[C@@H]6C5)cc4)no3)c2cc1F (relative stereo) [A215, 3-(3-{4-[(cis)-octahydrofuro[3,4-c]pyridine-5-carbonyl]phenyl}-1,2-oxazol-5-yl)-5-fluoro-6-(2-methoxyethoxy)-1H-indazole] | 0.76 | 35 |  | 
11 | COCCOc1cc2[nH]nc(-c3cn(-c4ccc(C(=O)N5CC(N6CCOCC6)C5)c(F)c4)nn3)c2cc1F [reference compound] |  |  | 20 | 700
12 | COCCOc1cc2[nH]nc(-c3cc(-c4ccc(N=S5(=O)CCNCC5)cc4)no3)c2cc1F [A129, 1-[(4-{5-[5-fluoro-6-(2-methoxyethoxy)-1H-indazol-3-yl]-1,2-oxazol-3-yl}phenyl)imino]-1lambda6-thiomorpholin-1-one] | 1.7 | 80 |  | 
13 | COCCOc1cc2[nH]nc(-c3cc(-c4ccc(C(=O)N5CC(N6CCOCC6)C5)cn4)no3)c2cc1F [A82, 5-fluoro-6-(2-methoxyethoxy)-3-(3-{5-[3-(morpholin-4-yl)azetidine-1-carbonyl]pyridin-2-yl}-1,2-oxazol-5-yl)-1H-indazole] | 9.8 | 420 |  | 
14 | COCCOc1cc2[nH]nc(-c3cc(-c4ccc(C(=O)N5CC(N6CCOCC6)C5)cc4)no3)c2cc1Cl [A64, (4-{5-[5-chloro-6-(2-methoxy-ethoxy)-1H-indazol-3-yl]-isoxazol-3-yl}-phenyl)-(3-morpholin-4-yl-azetidin-1-yl)-methanone] | 0.53 | 32 |  | 
15 | COCCOc1cc2[nH]nc(-c3cc(-c4ccc(C(=O)N5C6CC5CS(=O)(=O)C6)cc4)no3)c2cc1F [A108, 6-(4-{5-[5-fluoro-6-(2-methoxyethoxy)-1H-indazol-3-yl]-1,2-oxazol-3-yl}benzoyl)-3lambda6-thia-6-azabicyclo[3.1.1]heptane-3,3-dione] | 0.81 | 56 |  | 
16 | COCCOc1cc2[nH]nc(-c3cc(-c4ccc(N5CC[S+]([O-])CC5)nc4)no3)c2cc1F [A140, 4-(5-{5-[5-fluoro-6-(2-methoxyethoxy)-1H-indazol-3-yl]-1,2-oxazol-3-yl}pyridin-2-yl)-1lambda4-thiomorpholin-1-one] | 1.6 | 46 |  | 
17 | COCCOc1cc2[nH]nc(-c3cn(-c4ccc(C(=O)N5CCOC[C@H]5C)cc4)nn3)c2cc1F [reference compound] |  |  | 4.3 | 230
18 | COCCOc1ccc2c(-c3cc(-c4ccc(C(=O)N5CCC[C@@H]5C(C)(C)O)cc4)no3)n[nH]c2c1 [A2, 2-[(2R)-1-(4-{5-[6-(2-methoxyethoxy)-1H-indazol-3-yl]-1,2-oxazol-3-yl}benzoyl)pyrrolidin-2-yl]propan-2-ol] | 4.8 | 250 |  | 
19 | COCCOc1cc2[nH]nc(-c3cc(-c4ccc(C(=O)N5CCN(C)C[C@@H]5C)cc4)on3)c2cc1C#N [A11, 3-(5-{4-[(2S)-2,4-dimethylpiperazine-1-carbonyl]phenyl}-1,2-oxazol-3-yl)-6-(2-methoxyethoxy)-1H-indazole-5-carbonitrile] | 2.4 | 170 |  | 
20 | COCCOc1cc2[nH]nc(-c3cn(-c4ccc(C(=O)N5CCN(C6COC6)CC5)cc4)nn3)c2cc1F [reference compound] |  |  | 7.8 | 790
21 | COCCOc1cc2[nH]nc(-c3cc(-c4ccc(C(=O)N5CC(N6CCC(O)CC6)C5)cc4)no3)c2cc1F [A103, 1-[1-(4-{5-[5-fluoro-6-(2-methoxyethoxy)-1H-indazol-3-yl]-1,2-oxazol-3-yl}benzoyl)azetidin-3-yl]piperidin-4-ol] | 0.96 | 140 |  | 
22 | COCCOc1cc2[nH]nc(-c3cc(-c4ccc(C(=O)N5CCC[C@@H]5CS(C)(=O)=O)cc4)no3)c2cc1F [A55, 5-fluoro-3-(3-{4-[(2R)-2-(methanesulfonylmethyl)pyrrolidine-1-carbonyl]phenyl}-1,2-oxazol-5-yl)-6-(2-methoxyethoxy)-1H-indazole] | 0.73 | 65 |  | 
23 | COCCOc1cc2[nH]nc(-c3cc(-c4ccc(C(=O)N5CC(F)C5)nc4)no3)c2cc1F [A98, (3-fluoro-azetidin-1-yl)-(5-{5-[5-fluoro-6-(2-methoxy-ethoxy)-1H-indazol-3-yl]-isoxazol-3-yl}-pyridin-2-yl)-methanone] | 15 | 860 |  | 
24 | COCCOc1cc2[nH]nc(-c3cc(-c4ccc(OCCN5CCN(C)CC5)cc4)no3)c2cc1F [A133, 5-fluoro-6-(2-methoxyethoxy)-3-(3-{4-[2-(4-methylpiperazin-1-yl)ethoxy]phenyl}-1,2-oxazol-5-yl)-1H-indazole] | 1 | 130 |  | 
25 | COCCOc1cc2[nH]nc(-c3cc(-c4ccc(C(=O)N5CCCN(C6COC6)CC5)cc4)no3)c2cc1F [A198, 5-fluoro-6-(2-methoxyethoxy)-3-(3-{4-[4-(oxetan-3-yl)-1,4-diazepane-1-carbonyl]phenyl}-1,2-oxazol-5-yl)-1H-indazole] | 0.92 | 73 |  | 
26 | COCCOc1cc2[nH]nc(-c3cc(-c4ccc(C(=O)NCc5nc6ccccc6[nH]5)cc4)no3)c2cc1F [A156, N-[(1H-1,3-benzodiazol-2-yl)methyl]-4-{5-[5-fluoro-6-(2-methoxyethoxy)-1H-indazol-3-yl]-1,2-oxazol-3-yl}benzamide] | 5.2 | 350 |  | 
27 | COCCOc1cc2[nH]nc(-c3cc(-c4ccc(C(=O)N5CC(N6CCN(C7COC7)CC6)C5)cc4)no3)c2cc1F [A197, 5-fluoro-6-(2-methoxyethoxy)-3-[3-(4-{3-[4-(oxetan-3-yl)piperazin-1-yl]azetidine-1-carbonyl}phenyl)-1,2-oxazol-5-yl]-1H-indazole] | 1.9 | 87 |  | 
28 | COCCOc1cc2[nH]nc(-c3cc(-c4ccc(C(=O)N5CCOC[C@@H]5CO)cc4)no3)c2cc1F [A106, [(3S)-4-(4-{5-[5-fluoro-6-(2-methoxyethoxy)-1H-indazol-3-yl]-1,2-oxazol-3-yl}benzoyl)morpholin-3-yl]methanol] | 0.7 | 77 |  | 
29 | COCCOc1cc2[nH]nc(-c3cc(-c4ccc(C(=O)N5CC(N6CCCC6)C5)cc4)no3)c2cc1F [A178, 5-fluoro-6-(2-methoxyethoxy)-3-(3-{4-[3-(pyrrolidin-1-yl)azetidine-1-carbonyl]phenyl}-1,2-oxazol-5-yl)-1H-indazole] | 1.1 | 62 |  | 
30 | COCCOc1cc2[nH]nc(-c3cc(-c4ccc(C(=O)N5CCS(=N)(=O)CC5)cc4)no3)c2cc1F [A80, 4-(4-{5-[5-fluoro-6-(2-methoxyethoxy)-1H-indazol-3-yl]-1,2-oxazol-3-yl}benzoyl)-1-imino-1lambda6-thiomorpholin-1-one] | 0.99 | 460 |  | 
